# Measurements published in US8603539B2, “Compositions for drug delivery” (Dr. Reddy's Laboratories Limited, priority 2005, dated 2013).
# Test system: New Zealand white rabbits
# Assay: Comparative dermal irritation study (PDII)
# Details: rabbit skin, patch 24 hours; erythema and edema scores at 25, 48 and 72 hours
# Procedure: Six male New Zealand white rabbits of age between 10 to 15 months and weight in the range of 2 to 3 Kg were used in the study. […] The hair on the backs of the rabbits was clipped and approximately 0.5 g of Test or Reference or Control 2 was placed on a gauze patch and was applied to the skin site. Separate gauze patches containing Test, Reference and Control 2 were applied on the back. The patches were moistened with 0.5 ml physiological saline after application. 0.5 ml of Control 1 was injected into a fourth gauze patch after applying the patch on the skin. The patches were removed after 24 hours.
# The test and control items were categorized based on the Primary Dermal Irritation Index (PDII). The PDII was determined as the ratio of total irritation score (TIS) and total number of observations. The TIS was calculated by adding the subtotal values for erythema and edema. The subtotal values for erythema and edema were separately calculated by adding the irritation scores at 25, 48 and 72 hours post-application. The following scoring criteria were used as described in the literature (S. C. Gad et al., Acute Toxicology Testing: Perspectives and Horizons, The Telford Press, Inc., Caldwell, N.J., 1988):
compound,measurement,value
"CCCCCCCCCCCCOS(=O)(=O)[O-].[Na+] [Control 1, sodium lauryl sulphate]",PDII (Primary Dermal Irritation Index),0.44
